In US11339130B1 (Blade Therapeutics, Inc., priority 2016, dated 2022):
Read-outs that look alike come from different tables or passages of the source.

Key:
[1] = test system: Calpain activity in SH-SY5Y cells (SBDP-150); test: SH-SY5Y Spectrin western blot assay (SBDP-150 breakdown product, A23187-induced); type: cell-based; settings: Homo sapiens, SH-SY5Y cells, read-out: SH-SY5Y Spectrin IC50
Human Calpain 1/NS1 = biological target: T1, Human Calpain 1/NS1 (Homo sapiens, UniProt P07384); test: Calpain inhibition continuous fluorescence (FRET) assay, Human Calpain 1/NS1; type: biochemical; settings: read-out: Human Calpain 1/NS1 IC50
T1 sequence (P07384 1-714): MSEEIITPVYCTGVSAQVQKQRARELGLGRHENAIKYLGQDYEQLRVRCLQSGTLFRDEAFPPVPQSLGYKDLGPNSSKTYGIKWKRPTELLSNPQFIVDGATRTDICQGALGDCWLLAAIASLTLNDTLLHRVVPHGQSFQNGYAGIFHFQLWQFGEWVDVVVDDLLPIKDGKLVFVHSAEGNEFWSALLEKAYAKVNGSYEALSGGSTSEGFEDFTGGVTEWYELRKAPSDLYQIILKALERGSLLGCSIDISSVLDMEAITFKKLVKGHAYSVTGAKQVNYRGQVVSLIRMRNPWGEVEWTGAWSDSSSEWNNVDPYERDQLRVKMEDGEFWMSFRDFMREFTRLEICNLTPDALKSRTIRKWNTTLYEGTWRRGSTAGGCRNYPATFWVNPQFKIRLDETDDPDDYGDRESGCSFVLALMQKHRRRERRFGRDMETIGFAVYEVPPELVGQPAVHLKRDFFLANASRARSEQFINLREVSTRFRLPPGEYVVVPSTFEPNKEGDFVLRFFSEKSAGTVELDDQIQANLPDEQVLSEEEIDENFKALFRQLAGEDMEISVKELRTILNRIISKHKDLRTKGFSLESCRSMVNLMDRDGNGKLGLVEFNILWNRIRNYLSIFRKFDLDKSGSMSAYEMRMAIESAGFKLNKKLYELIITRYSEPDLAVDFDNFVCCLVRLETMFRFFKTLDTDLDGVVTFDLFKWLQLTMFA
T1 sequence (P04632 1-268 partner): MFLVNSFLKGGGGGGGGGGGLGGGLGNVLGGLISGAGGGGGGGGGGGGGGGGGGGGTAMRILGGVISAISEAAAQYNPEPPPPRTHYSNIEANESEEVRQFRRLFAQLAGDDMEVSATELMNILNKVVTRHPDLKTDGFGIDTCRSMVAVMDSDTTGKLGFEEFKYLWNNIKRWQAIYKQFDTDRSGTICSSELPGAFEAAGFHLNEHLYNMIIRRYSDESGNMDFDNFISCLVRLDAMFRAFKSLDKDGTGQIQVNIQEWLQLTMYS
Procedure, shortened: (§1)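 Continuous FRET read (ex 490/em 520 nm, 10 min) of calpain 1, 2 or 9 cleaving an internally quenched 5-FAM peptide, triggered by substrate with CaCl2 after enzyme–inhibitor incubation at ambient 25 °C, pH 7.5 Tris/NaCl/DTT buffer. IC50 from initial rates (1-5 min) via 4-parameter fit.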

[2] = test system: Calpain activity in SH-SY5Y cells; test: SH-SY5Y + AMC fluorescence assay (Suc-LLVY-AMC substrate); type: cell-based; settings: read-out: SH-SY5Y + AMC IC50
Human Calpain 9/NS1 = biological target: T2, Human Calpain 9/NS1 (Homo sapiens, UniProt O14815); test: Calpain inhibition continuous fluorescence (FRET) assay, Human Calpain 9/NS1; type: biochemical; settings: read-out: Human Calpain 9/NS1 IC50
T2 sequence (O14815 1-690): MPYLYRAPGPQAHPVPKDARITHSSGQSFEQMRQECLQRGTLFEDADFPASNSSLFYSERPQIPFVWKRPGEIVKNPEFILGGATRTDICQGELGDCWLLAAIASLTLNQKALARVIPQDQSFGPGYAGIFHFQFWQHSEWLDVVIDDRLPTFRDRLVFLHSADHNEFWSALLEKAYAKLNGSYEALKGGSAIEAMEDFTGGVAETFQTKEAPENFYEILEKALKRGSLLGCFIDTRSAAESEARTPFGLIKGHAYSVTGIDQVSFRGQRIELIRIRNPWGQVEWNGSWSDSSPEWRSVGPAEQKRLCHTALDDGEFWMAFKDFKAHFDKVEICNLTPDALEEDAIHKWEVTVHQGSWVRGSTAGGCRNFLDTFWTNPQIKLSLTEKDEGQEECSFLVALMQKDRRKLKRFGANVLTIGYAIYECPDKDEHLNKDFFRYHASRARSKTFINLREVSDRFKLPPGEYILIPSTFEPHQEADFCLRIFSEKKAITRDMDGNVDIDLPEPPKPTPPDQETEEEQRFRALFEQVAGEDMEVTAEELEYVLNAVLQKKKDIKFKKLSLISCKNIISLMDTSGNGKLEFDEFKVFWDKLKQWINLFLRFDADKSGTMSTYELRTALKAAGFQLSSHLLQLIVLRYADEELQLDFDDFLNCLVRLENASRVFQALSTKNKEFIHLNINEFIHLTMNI
T2 sequence (P04632 1-268 partner): T1 sequence (P04632 1-268 partner)
Procedure, shortened: as §1

Human Calpain 2/NS1 = biological target: T3, Human Calpain 2/NS1 (Homo sapiens, UniProt P17655); test: Calpain inhibition continuous fluorescence (FRET) assay, Human Calpain 2/NS1; type: biochemical; settings: read-out: Human Calpain 2/NS1 IC50
T3 sequence (P17655 1-700): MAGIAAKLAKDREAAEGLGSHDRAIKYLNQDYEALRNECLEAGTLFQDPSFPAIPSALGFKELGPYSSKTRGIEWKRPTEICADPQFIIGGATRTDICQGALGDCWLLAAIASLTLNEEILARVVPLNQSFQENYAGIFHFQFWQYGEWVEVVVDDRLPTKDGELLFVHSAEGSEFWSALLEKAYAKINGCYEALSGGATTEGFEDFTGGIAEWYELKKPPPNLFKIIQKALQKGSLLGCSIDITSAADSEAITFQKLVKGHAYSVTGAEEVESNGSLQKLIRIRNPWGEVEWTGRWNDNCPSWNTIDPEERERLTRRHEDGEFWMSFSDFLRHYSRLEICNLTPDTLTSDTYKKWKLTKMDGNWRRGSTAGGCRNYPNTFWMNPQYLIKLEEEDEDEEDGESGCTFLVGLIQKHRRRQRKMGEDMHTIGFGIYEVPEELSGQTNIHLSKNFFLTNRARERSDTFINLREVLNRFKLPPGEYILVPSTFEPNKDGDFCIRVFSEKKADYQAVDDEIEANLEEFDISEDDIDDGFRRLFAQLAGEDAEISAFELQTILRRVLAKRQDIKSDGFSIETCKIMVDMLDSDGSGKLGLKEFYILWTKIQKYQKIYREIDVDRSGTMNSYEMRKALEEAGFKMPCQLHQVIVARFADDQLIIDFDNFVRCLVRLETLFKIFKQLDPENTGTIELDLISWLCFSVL
T3 sequence (P04632 1-268 partner): T1 sequence (P04632 1-268 partner)
Procedure, shortened: as §1

[3] = A23187-induced SBDP-150, western blot
[4] = Column D, A23187-induced SBDP-150

Structure (SMILES) | IC50 [1, 3] | IC50 (Human Calpain 1/NS1) | IC50 [2] | IC50 (Human Calpain 9/NS1) | IC50 (Human Calpain 2/NS1) | IC50 [1, 4] | IC50 (Human Calpain 1/NS1; Column A) | IC50 ([2]; Column E) | IC50 (Human Calpain 9/NS1; Column C) | IC50 (Human Calpain 2/NS1; Column B)
Cn1cc(C(=O)NC(Cc2ccccc2)C(=O)C(N)=O)c(-c2ccsc2Cl)n1 (stereo not shown) [Compound 501, N-(4-amino-3,4-dioxo-1-phenylbutan-2-yl)-3-(2-chlorothiophen-3-yl)-1-methyl-1H-pyrazole-4-carboxamide] | 10 to 25 µM | < 3 µM | < 10 µM | < 3 µM | < 3 µM | – | – | – | – | –
NC(=O)C(=O)[C@H](Cc1ccccc1)NC(=O)c1c[nH]nc1-c1ccccc1 [Compound 30, (S)—N-(4-amino-3,4-dioxo-1-phenylbutan-2-yl)-3-phenyl-1H-pyrazole-4-carboxamide] | – | – | – | – | – | < 10 µM | < 3 µM | 10 to 25 µM | < 3 µM | < 3 µM
NC(=O)C(=O)[C@H](Cc1ccccc1)NC(=O)c1cn(-c2ccccc2)nc1-c1ccccc1 [Compound 309, (S)—N-(4-amino-3,4-dioxo-1-phenylbutan-2-yl)-1,3-diphenyl-1H-pyrazole-4-carboxamide] | 10 to 25 µM | < 3 µM | < 10 µM | < 3 µM | < 3 µM | – | – | – | – | –
NC(=O)C(=O)C(Cc1ccccc1)NC(=O)c1cn(C2CCC2)nc1-c1ccccc1 (stereo not shown) [Compound 526, N-(4-amino-3,4-dioxo-1-phenylbutan-2-yl)-1-cyclobutyl-3-phenyl-1H-pyrazole-4-carboxamide] | > 25 µM | < 3 µM | < 10 µM | < 3 µM | < 3 µM | – | – | – | – | –
Cn1cc(C(=O)NC(Cc2ccccc2)C(=O)C(=O)NC2CC2)c(-c2ccccc2)n1 (stereo not shown) [Compound 458, N-(4-(cyclopropylamino)-3,4-dioxo-1-phenylbutan-2-yl)-1-methyl-3-phenyl-1H-pyrazole-4-carboxamide] | 10 to 25 µM | < 3 µM | < 10 µM | < 3 µM | < 3 µM | – | – | – | – | –
Cn1ncc(C(=O)N[C@@H](Cc2ccccc2)C(=O)C(N)=O)c1-c1ccncn1 [Compound 175, (S)—N-(4-amino-3,4-dioxo-1-phenylbutan-2-yl)-1-methyl-5-(pyrimidin-4-yl)-1H-pyrazole-4-carboxamide] | – | – | – | – | – | > 25 µM | < 3 µM | < 10 µM | < 3 µM | < 3 µM
NC(=O)C(=O)C(Cc1ccccc1)NC(=O)c1cn(C(F)F)nc1-c1ccc2ccccc2c1 (stereo not shown) [Compound 551, N-(4-amino-3,4-dioxo-1-phenylbutan-2-yl)-1-(difluoromethyl)-3-(naphthalen-2-yl)-1H-pyrazole-4-carboxamide] | 10 to 25 µM | < 3 µM | > 25 µM | < 3 µM | < 3 µM | – | – | – | – | –
Cn1cc(C(=O)N[C@@H](Cc2ccccc2)C(=O)C(N)=O)c(-c2cccc(C3CC3)c2)n1 [Compound 186, (S)—N-(4-amino-3,4-dioxo-1-phenylbutan-2-yl)-3-(3-cyclopropylphenyl)-1-methyl-1H-pyrazole-4-carboxamide] | – | – | – | – | – | > 25 µM | 3 to 10 µM | > 25 µM | 3 to 10 µM | 3 to 10 µM
Cn1cc(C(=O)NC(Cc2ccccc2)C(=O)C(N)=O)c(-c2cccc3ncccc23)n1 (stereo not shown) [Compound 597, N-(4-amino-3,4-dioxo-1-phenylbutan-2-yl)-1-methyl-3-(quinolin-5-yl)-1H-pyrazole-4-carboxamide] | 10 to 25 µM | < 3 µM | 10 to 25 µM | < 3 µM | < 3 µM | – | – | – | – | –

Next, values leading:

IC50 [1, 3] | IC50 (Human Calpain 1/NS1) | IC50 [2] | IC50 (Human Calpain 9/NS1) | IC50 (Human Calpain 2/NS1) | IC50 [1, 4] | IC50 (Human Calpain 1/NS1; Column A) | IC50 ([2]; Column E) | IC50 (Human Calpain 9/NS1; Column C) | IC50 (Human Calpain 2/NS1; Column B) | Structure (SMILES)
– | – | – | – | – | > 25 µM | < 3 µM | > 25 µM | < 3 µM | < 3 µM | Cc1cc(C(=O)N[C@@H](Cc2ccccc2)C(=O)C(N)=O)n(-c2cccc(-c3ccc(F)cc3)c2)n1 [Compound 103, (S)—N-(4-amino-3,4-dioxo-1-phenylbutan-2-yl)-1-(4′-fluoro-[1,1′-biphenyl]-3-yl)-3-methyl-1H-pyrazole-5-carboxamide]
– | – | – | – | – | 10 to 25 µM | < 3 µM | < 10 µM | < 3 µM | < 3 µM | Cc1cc(C(=O)N[C@@H](Cc2ccccc2)C(=O)C(N)=O)n(-c2ncc(-c3ccccc3)o2)n1 [Compound 212, (S)—N-(4-amino-3,4-dioxo-1-phenylbutan-2-yl)-3-methyl-1-(5-phenyloxazol-2-yl)-1H-pyrazole-5-carboxamide]
10 to 25 µM | < 3 µM | > 25 µM | < 3 µM | < 3 µM | – | – | – | – | – | Cc1cc(C(=O)NC(Cc2ccccc2)C(=O)C(N)=O)n(-c2ccc(CN3CCOCC3)cc2)n1 (stereo not shown) [Compound 442, N-(4-amino-3,4-dioxo-1-phenylbutan-2-yl)-3-methyl-1-(4-(morpholinomethyl)phenyl)-1H-pyrazole-5-carboxamide]
– | – | – | – | – | < 10 µM | < 3 µM | < 10 µM | < 3 µM | < 3 µM | Cc1cc(C(=O)N[C@@H](Cc2ccccc2)C(=O)C(N)=O)n(-c2ncccn2)n1 [Compound 49, (S)—N-(4-amino-3,4-dioxo-1-phenylbutan-2-yl)-3-methyl-1-(pyrimidin-2-yl)-1H-pyrazole-5-carboxamide]
– | – | – | – | – | 10 to 25 µM | < 3 µM | < 10 µM | < 3 µM | < 3 µM | Cc1cc(C(=O)N[C@@H](Cc2ccccc2)C(=O)C(N)=O)n(-c2cccc(CNCc3ccccc3)c2)n1 [Compound 146, (S)—N-(4-amino-3,4-dioxo-1-phenylbutan-2-yl)-1-(3-((benzylamino)methyl)phenyl)-3-methyl-1H-pyrazole-5-carboxamide]
